Reference: US11739098B2 (BRISTOL-MYERS SQUIBB COMPANY, priority 2017, dated 2023)

How the values were obtained:
Format in all cases: cell-based
[1] = biological target: T1, human TLR7 (Homo sapiens, UniProt Q9NYK1); assay: TLR7 inhibition reporter assay (HEK-Blue cells, SEAP reporter, gardiquimod stimulation); details: HEK-Blue cells overexpressing human TLR7, SEAP reporter, gardiquimod 7.5 μM
T1 construct: host or cells: HEK-Blue cells (HEK293-derived reporter line)
T1 sequence (Q9NYK1 27-1049): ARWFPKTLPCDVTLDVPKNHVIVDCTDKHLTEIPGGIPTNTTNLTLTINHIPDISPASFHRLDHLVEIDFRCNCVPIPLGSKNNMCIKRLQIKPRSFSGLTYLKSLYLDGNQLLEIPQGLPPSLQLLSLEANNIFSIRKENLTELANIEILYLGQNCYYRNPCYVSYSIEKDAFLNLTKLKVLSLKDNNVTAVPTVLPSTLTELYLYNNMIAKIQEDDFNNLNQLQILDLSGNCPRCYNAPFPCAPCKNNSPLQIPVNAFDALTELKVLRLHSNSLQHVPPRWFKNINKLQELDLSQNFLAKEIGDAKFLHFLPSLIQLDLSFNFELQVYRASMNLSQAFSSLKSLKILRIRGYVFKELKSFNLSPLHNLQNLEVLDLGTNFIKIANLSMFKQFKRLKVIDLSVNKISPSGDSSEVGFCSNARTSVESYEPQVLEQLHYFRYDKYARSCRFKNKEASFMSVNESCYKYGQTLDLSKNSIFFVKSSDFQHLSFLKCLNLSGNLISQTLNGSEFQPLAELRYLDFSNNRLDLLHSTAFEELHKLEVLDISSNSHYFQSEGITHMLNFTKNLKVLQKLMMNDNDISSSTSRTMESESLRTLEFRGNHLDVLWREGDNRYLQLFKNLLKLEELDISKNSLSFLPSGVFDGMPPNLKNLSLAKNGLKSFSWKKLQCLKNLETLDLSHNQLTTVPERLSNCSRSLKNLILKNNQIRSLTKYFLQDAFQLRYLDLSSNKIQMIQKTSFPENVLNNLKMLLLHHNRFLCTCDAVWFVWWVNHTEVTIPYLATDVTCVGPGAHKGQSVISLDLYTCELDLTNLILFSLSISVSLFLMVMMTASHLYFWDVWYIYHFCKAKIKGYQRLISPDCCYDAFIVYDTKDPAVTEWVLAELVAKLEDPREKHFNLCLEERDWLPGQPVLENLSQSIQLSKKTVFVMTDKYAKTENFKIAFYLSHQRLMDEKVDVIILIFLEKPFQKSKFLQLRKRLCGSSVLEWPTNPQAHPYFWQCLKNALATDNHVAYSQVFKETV
Method in brief: (§1)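 HEK-Blue cells overexpressing the receptor, with NF-κB/AP-1-driven SEAP, were pre-treated 30 min at room temperature with compound (0.05 nM–50 μM), then stimulated with gardiquimod 7.5 μM (TLR7), R848 15.9 μM (TLR8) or ODN2006 5 nM (TLR9). SEAP was read after 22 h at 37 °C as percent inhibition.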

[2] = biological target: T2, human TLR8 (Homo sapiens, UniProt Q9NR97); assay: TLR8 inhibition reporter assay (HEK-Blue cells, SEAP reporter, R848 stimulation); details: HEK-Blue cells overexpressing human TLR8, SEAP reporter, R848 15.9 μM
T2 construct: host or cells: HEK-Blue cells (HEK293-derived reporter line)
T2 sequence (Q9NR97 27-1041): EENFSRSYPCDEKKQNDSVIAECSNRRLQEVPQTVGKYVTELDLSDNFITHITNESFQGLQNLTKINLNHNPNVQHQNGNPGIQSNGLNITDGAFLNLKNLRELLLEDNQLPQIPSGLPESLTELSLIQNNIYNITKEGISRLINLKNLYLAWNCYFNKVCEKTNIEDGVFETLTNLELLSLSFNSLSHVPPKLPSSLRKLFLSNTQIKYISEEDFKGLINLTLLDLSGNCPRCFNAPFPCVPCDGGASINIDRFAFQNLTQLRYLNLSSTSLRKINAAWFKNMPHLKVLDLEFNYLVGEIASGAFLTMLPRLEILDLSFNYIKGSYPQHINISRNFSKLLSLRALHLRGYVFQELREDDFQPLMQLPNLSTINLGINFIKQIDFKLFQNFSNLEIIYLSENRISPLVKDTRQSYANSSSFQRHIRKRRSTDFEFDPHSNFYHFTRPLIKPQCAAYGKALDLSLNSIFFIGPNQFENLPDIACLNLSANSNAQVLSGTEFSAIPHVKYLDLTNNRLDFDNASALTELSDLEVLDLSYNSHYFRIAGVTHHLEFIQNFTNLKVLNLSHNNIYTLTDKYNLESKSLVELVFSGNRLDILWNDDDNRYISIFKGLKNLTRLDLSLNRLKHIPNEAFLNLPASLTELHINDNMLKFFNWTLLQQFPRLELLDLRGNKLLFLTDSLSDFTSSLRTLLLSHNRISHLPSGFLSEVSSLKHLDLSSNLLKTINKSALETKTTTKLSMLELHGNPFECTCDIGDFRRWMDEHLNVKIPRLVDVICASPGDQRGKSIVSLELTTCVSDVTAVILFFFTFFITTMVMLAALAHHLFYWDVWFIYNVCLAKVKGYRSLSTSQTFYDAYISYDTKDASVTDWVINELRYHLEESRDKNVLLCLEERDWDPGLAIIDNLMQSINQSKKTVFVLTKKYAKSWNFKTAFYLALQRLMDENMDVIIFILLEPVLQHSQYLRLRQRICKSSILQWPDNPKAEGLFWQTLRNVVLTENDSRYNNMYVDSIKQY
Method in brief: as §1

[3] = biological target: T3, human TLR9 (Homo sapiens, UniProt Q9NR96); assay: TLR9 inhibition reporter assay (HEK-Blue cells, SEAP reporter, ODN2006 stimulation); details: HEK-Blue cells overexpressing human TLR9, SEAP reporter, ODN2006 5 nM
T3 construct: host or cells: HEK-Blue cells (HEK293-derived reporter line)
T3 sequence (Q9NR96 26-1032): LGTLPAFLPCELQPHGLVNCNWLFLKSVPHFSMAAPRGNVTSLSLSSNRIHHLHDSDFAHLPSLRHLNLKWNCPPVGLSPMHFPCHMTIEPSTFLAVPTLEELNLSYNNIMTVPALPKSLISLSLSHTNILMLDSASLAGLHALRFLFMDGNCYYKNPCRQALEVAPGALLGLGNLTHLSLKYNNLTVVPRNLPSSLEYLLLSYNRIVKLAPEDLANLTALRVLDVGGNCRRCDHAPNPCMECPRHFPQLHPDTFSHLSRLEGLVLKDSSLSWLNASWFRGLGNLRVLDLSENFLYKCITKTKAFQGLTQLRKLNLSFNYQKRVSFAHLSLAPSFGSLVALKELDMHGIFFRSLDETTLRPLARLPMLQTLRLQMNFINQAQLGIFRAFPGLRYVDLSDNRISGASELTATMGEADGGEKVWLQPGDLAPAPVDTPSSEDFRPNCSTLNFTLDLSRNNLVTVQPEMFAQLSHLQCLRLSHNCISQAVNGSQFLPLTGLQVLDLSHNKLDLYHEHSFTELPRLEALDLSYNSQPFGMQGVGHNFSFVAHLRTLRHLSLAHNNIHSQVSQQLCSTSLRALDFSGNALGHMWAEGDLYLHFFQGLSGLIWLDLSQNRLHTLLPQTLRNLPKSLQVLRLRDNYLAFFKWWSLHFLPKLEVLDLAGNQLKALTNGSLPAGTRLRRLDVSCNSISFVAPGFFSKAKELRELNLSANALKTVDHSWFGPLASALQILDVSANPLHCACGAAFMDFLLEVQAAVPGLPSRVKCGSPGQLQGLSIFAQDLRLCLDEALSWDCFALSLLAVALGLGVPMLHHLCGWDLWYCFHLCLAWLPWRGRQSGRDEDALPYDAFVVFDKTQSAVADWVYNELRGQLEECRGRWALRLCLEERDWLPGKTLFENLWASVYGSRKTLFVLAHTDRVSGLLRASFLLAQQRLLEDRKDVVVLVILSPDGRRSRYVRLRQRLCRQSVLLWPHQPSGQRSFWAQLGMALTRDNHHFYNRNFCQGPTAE
Method in brief: as §1

FC(F)Cc1c(-c2ccnc3[nH]ccc23)[nH]c2ccc(C3CCNCC3)cc12 [Example 205, 4-(3-(2,2-difluoroethyl)-5-(piperidin-4-yl)-1H-indol-2-yl)-1H-pyrrolo [2,3-b]pyridine]
IC50 [1]: < 0.1 µM | IC50 [2]: < 0.1 µM | IC50 [3]: 0.1 to 1 µM

CC(C)c1c(-c2ccnc3[nH]ncc23)[nH]c2ccc(C3CCN(Cc4ncn(C)n4)CC3)cc12 [Example 865, 4-(3-isopropyl-5-(1-((1-methyl-1H-1,2,4-triazol-3-yl)methyl)piperidin-4-yl)-1H-indol-2-yl)-1H-pyrazolo[3,4-b]pyridine]
IC50 [1]: < 0.1 µM | IC50 [2]: < 0.1 µM | IC50 [3]: 1 to 50 µM

CC(C)c1c(-c2cc(F)c3nccn3c2)[nH]c2ccc(C3CCNCC3)cc12 [Example 118, 8-fluoro-6-(3-isopropyl-5-(piperidin-4-yl)-1H-indol-2-yl)imidazo[1,2-a]pyridine]
IC50 [1]: < 0.1 µM | IC50 [2]: < 0.1 µM | IC50 [3]: 0.1 to 1 µM

CC(C)c1c(-c2cnc3nccn3c2)[nH]c2ccc(C3CCN(CC(=O)N(C)C)CC3)cc12 [Example 363, 2-(4-(2-(imidazo[1,2-a]pyrimidin-6-yl)-3-isopropyl-1H-indol-5-yl)piperidin-1-yl)-N,N-dimethylacetamide]
IC50 [1]: 0.1 to 1 µM | IC50 [2]: 0.1 to 1 µM | IC50 [3]: 0.1 to 1 µM

Cc1nc2cc(-c3[nH]c4ccc(C5CCN(C(=O)CC(C)(C)O)CC5)cc4c3C(C)C)ccn2n1 [Example 601, 3-hydroxy-1-(4-(3-isopropyl-2-(2-methyl-[1,2,4]triazolo[1,5-a]pyridin-7-yl)-1H-indol-5-yl)piperidin-1-yl)-3-methylbutan-1-one]
IC50 [1]: < 0.1 µM | IC50 [2]: > 3.13 µM | IC50 [3]: 1 to 50 µM

Cc1cc(-c2[nH]c3ccc(C4CCNCC4)cc3c2C(C)C)cc2nccnc12 [Example 88, 7-(3-isopropyl-5-(piperidin-4-yl)-1H-indol-2-yl)-5-methylquinoxaline]
IC50 [1]: < 0.1 µM | IC50 [2]: 0.1 to 1 µM | IC50 [3]: 1 to 50 µM

CNCCN1CCC(c2ccc3[nH]c(-c4ccc5nc(C)cn5c4)c(C(C)C)c3c2)CC1 [Example 676, 2-(4-(3-isopropyl-2-(2-methylimidazo[1,2-a]pyridin-6-yl)-1H-indol-5-yl)piperidin-1-yl)-N-methylethan-1-amine]
IC50 [1]: < 0.1 µM | IC50 [2]: 0.1 to 1 µM | IC50 [3]: 0.1 to 1 µM

Cc1cn2cc(-c3[nH]c4ccc(C5CCN(C(=O)CN(C)C)CC5)cc4c3CC(F)F)ccc2n1 [Example 551, 1-(4-(3-(2,2-difluoroethyl)-2-(2-methylimidazo[1,2-a]pyridin-6-yl)-1H-indol-5-yl)piperidin-1-yl)-2-(dimethylamino)ethan-1-one]
IC50 [1]: < 0.1 µM | IC50 [2]: > 3.13 µM | IC50 [3]: 0.1 to 1 µM

Cc1cc(-c2c[nH]c3nccc(-c4[nH]c5ccc(C6CCNCC6)cc5c4C)c23)n(C)n1 [Example 225, 3-(1,3-dimethyl-1H-pyrazol-5-yl)-4-(3-methyl-5-(piperidin-4-yl)-1H-indol-2-yl)-1H-pyrrolo[2,3-b]pyridine]
IC50 [1]: 0.1 to 1 µM | IC50 [2]: 0.1 to 1 µM | IC50 [3]: 0.1 to 1 µM

CC(C)c1c(-c2cn3ccnc3cc2C(F)(F)F)[nH]c2ccc(C3CCNCC3)cc12 [Example 135, 6-(3-isopropyl-5-(piperidin-4-yl)-1H-indol-2-yl)-7-(trifluoromethyl)imidazo[1,2-a]pyridine]
IC50 [1]: 0.1 to 1 µM | IC50 [2]: < 0.1 µM | IC50 [3]: 1 to 50 µM

CC(C)c1c(-c2cnc3cnccn23)[nH]c2ccc(C3CCN(CC(=O)N(C)C)CC3)cc12 [Example 426, 2-(4-(2-(imidazo[1,2-a]pyrazin-3-yl)-3-isopropyl-1H-indol-5-yl)piperidin-1-yl)-N,N-dimethylacetamide]
IC50 [1]: > 3.13 µM | IC50 [2]: 1 to 50 µM | IC50 [3]: 1 to 50 µM

Cc1cc(-c2[nH]c3ccc(C4CCN(CC(=O)N(C)C)CC4)cc3c2C(C)C)cn2nnnc12 [Example 313, 2-(4-(3-isopropyl-2-(8-methyltetrazolo[1,5-a]pyridin-6-yl)-1H-indol-5-yl)piperidin-1-yl)-N,N-dimethylacetamide]
IC50 [1]: < 0.1 µM | IC50 [2]: < 0.1 µM | IC50 [3]: 1 to 50 µM
